Measured values reported in patent US11161839B2, “2-quinolone derived inhibitors of BCL6” (Cancer Research Technology Limited, priority 2017, dated 2021).

Experiments:
[1] = molecular target: BCL6-NCOR2(SMRT) corepressor protein-protein interaction (Homo sapiens (Human), UniProt P41182); test: NanoBRET cell assay in transfected HEK293T cells; format: cell-based; conditions: further generated data (Table 2b); HEK293T cells, 6 hr; read-out: NanoBRET cell pIC50 (converted)
[2] = molecular target: human BCL6 BTB domain (Trx-6xHis-BCL6) (Homo sapiens (Human), UniProt P41182); test: HTRF in vitro assay (BCL6 BTB domain / BCOR-AF633 peptide); format: binding; conditions: further generated data (Table 1b), 1 nM Trx-6xHis-BCL6, 0.5 nM anti-6xHis-Terbium cryptate; for IC50: read-out: HTRF pIC50 (converted)
Method: The % inhibition at each concentration was calculated by normalising FRET ratio to the appropriate high (DMSO with all reagents) and low (DMSO without BCL6) controls.

## CC(Nc1cc(=O)n(C)c2ccc(Nc3cc(-n4cc(CCO)cn4)ncc3Cl)cc12)c1ncccn1 (stereo not drawn) [Example 15i, 6-((5-chloro-2-(4-(2-hydroxyethyl)-1H-pyrazol-1-yl)pyridin-4-yl)amino)-1-methyl-4-((1-(pyrimidin-2-yl)ethyl)amino)quinoline-2(1H)-one]
[1]
  IC50: 1.55 µM
[2]
  HTRF pIC50: 6.58

## CN(C)C(=O)C1CCN(c2ncc(Cl)c(Nc3ccc4c(c3)c(NC(C)(C)c3ncccn3)cc(=O)n4C)n2)CC1 [Example 16a, 1-(5-chloro-4-((1-methyl-2-oxo-4-((2-(pyrimidin-2-yl)propan-2-yl)amino)-1,2-dihydroquinolin-6-yl)amino)pyrimidin-2-yl)-N,N-dimethylpiperidine-4-carboxamide]
[1]
  IC50: 2.63 µM
[2]
  HTRF pIC50: 6.58

## CN(C)C(=O)C1CCN(c2ncc(Cl)c(Nc3ccc4c(c3)c(NC3(C#N)CC3)cc(=O)n4C)n2)CC1 [Example 16b, 1-(5-chloro-4-((4-((1-cyanocyclopropyl)amino)-1-methyl-2-oxo-1,2-dihydroquinolin-6-yl)amino)pyrimidin-2-y1)-N,N-dimethylpiperidine-4-carboxamide]
[1]
  IC50: 5.01 µM
[2]
  HTRF pIC50: 6.37

## COCC(C)(C)Nc1cc(=O)n(C)c2ccc(Nc3nc(N4CCC(C(=O)N(C)C)CC4)ncc3Cl)cc12 [Example 16d, 1-(5-chloro-4-((4-((1-methoxy-2-methylpropan-2-yl)amino)-1-methyl-2-oxo-1,2-dihydroquinolin-6-yl)amino)pyrimidin-2-yl)-N,N-dimethylpiperidine-4-carboxamide]
[1]
  IC50: 9.12 µM
[2]
  HTRF pIC50: 6.25

## CC(Nc1cc(=O)n(C)c2ccc(Nc3nc(N4C[C@@H](C)O[C@@H](C)C4)ncc3Cl)cc12)c1ncccn1 (stereo partly drawn) [Example 17a, 6-((5-chloro-2-((2S,6R)-2,6-dimethylmorpholino)pyrimidin-4-yl)amino)-1-methyl-4-((1-(pyrimidin-2-yl)ethyl)amino)quinolin-2(1H)-one]
[1]
  IC50: 1.78 µM
[2]
  HTRF pIC50: 6.48

## CC(Nc1cc(=O)n(C)c2ccc(Nc3nc(N4CCC(C(=O)N(C)C)CC4)ncc3Cl)cc12)c1ncccn1 (stereo not drawn) [Example 17c, 1-(5-chloro-4-((-methyl-2-oxo-4-((1-(pyrimidin-2yl)ethyl)amino)-1,2-dihydroquinolin-6-yl)amino)pyrimidin-2-yl)-N,N-dimethylpiperidine-4-carboxamide]
[1]
  IC50: 3.72 µM
[2]
  IC50: 0.339 µM

## CC(Nc1cc(=O)n(C)c2ccc(Nc3nc(N4CCC(CC(=O)N(C)C)CC4)ncc3Cl)cc12)c1ncccn1 (stereo not drawn) [Example 17e, 2-(1-(5-chloro-4-((1-methyl-2-oxo-4-((1-(pyrimidin-2-yl)ethyl)amino)-1,2-dihydroquinolin-6-yl)amino)pyrimidin-2-yl)piperidin-4-yl)-N,N-dimethylacetamide:formic acid (1:1)]
[1]
  IC50: 3.47 µM
[2]
  HTRF pIC50: 6.34

## CC(Nc1cc(=O)n(C)c2ccc(Nc3nc(NCc4cccnc4)ncc3Cl)cc12)c1ncccn1 (stereo not drawn) [Example 17f, 6-((5-chloro-2-((pyridin-3-ylmethyl)amino)pyrimidin-4-yl)amino)-1-methyl-4((1-(pyrimidin-2-yl)ethyl)amino)quinolin-2(1H)-one:formic acid (1:1)]
[1]
  IC50: 3.24 µM
[2]
  HTRF pIC50: 6.32

## CC(Nc1cc(=O)n(C)c2ccc(Nc3nc(N4CC5(CCOCC5)C4)ncc3Cl)cc12)c1ncccn1 (stereo not drawn) [Example 17h, 6-((5-chloro-2-(7-oxa-2-azaspiro[3.5]nonan-2-yl)pyrimidin-4-yl)amino)-1-methyl-4((1-(pyrimidin-2-yl)ethyl)amino)quinolin-2(1H)-one:formic acid (1:1)]
[1]
  IC50: 4.17 µM
[2]
  HTRF pIC50: 6.20

## CC(Nc1cc(=O)n(C)c2ccc(Nc3nc(N4CCC(F)(F)CC4)ncc3Cl)cc12)c1ncccn1 (stereo not drawn) [Example 17i, 6-((5-chloro-2-(4,4-difluoropiperidin-1-yl)pyrimidin-4-yl)amino)-1-methyl-4-((1-(pyrimidin-2-yl)ethyl)amino)quinolin-2(1H)-one]
[1]
  IC50: 2.82 µM
[2]
  HTRF pIC50: 6.20

## CC(Nc1cc(=O)n(C)c2ccc(Nc3nc(N4CC(C)(C#N)C4)ncc3Cl)cc12)c1ncccn1 (stereo not drawn) [Example 17j, 1-(5-chloro-4-((1-methyl-2-oxo-4-((11-(pyrimidin-2-yl)ethyl)amino)-1,2-dihydroquinoline-6-yl)amino)pyrimidin-2-yl)-3-methylazetidine-3-carbonitrile]
[1]
  IC50: 4.9 µM
[2]
  HTRF pIC50: 6.18

## CNC(=O)c1cc(Nc2ccc3c(c2)c(NC(C)c2ncccn2)cc(=O)n3C)c(C#N)c(C)n1 (stereo not drawn) [Example 18b, 5-cyano-N, 6-dimethyl-4-((1-methyl-2-oxo-4-((1-(pyrimidin-2-yl)ethyl)amino)-1,2-dihydroquinolin-6-yl)amino)picolinamide]
[1]
  IC50: 7.08 µM
[2]
  HTRF pIC50: 6.40

## CN(C)C(=O)c1cc(Nc2ccc3c(c2)c(NC(C)(C)c2ncccn2)cc(=O)n3C)c(C#N)c(Cl)n1 [Example 19a, 6-chloro-5-cyano-N,N-dimethyl-4-((1-methyl-2-oxo-4-((2-(pyrimidin-2-yl)propan-2-yl)amino)-1,2-dihydroquinolin-6-yl)amino)picolinamide]
[1]
  IC50: 2.75 µM
[2]
  HTRF pIC50: 7.55

## CC(Nc1cc(=O)n(C)c2ccc(Nc3cc(C(=O)N(C)C)nc(Cl)c3C#N)cc12)c1ncccn1 (stereo not drawn) [Example 19b]
[1]
  IC50: 5.25 µM
[2]
  HTRF pIC50: 6.99

## CNC(=O)c1cc(Nc2ccc3c(c2)c(NC(C)c2ncccn2)cc(=O)n3C)c(C#N)cn1 (stereo not drawn) [Example 19c]
[1]
  IC50: 29.5 µM
[2]
  IC50: 0.891 µM

## COCC(C)(C)Nc1cc(=O)n(C)c2ccc(Nc3ccnc(Cl)c3C#N)cc12 [Example 19d, 2-chloro-4-((4-((1-methoxy-2-methylpropan-2-yl)amino)-1-methyl-2-oxo-1,2-dihydroquinolin-6-yl)amino)nicotinonitrile]
[1]
  IC50: 8.71 µM
[2]
  HTRF pIC50: 6.51

## CCC(C)(COC)Nc1cc(=O)n(C)c2ccc(Nc3cc(C(=O)NC)nc(Cl)c3C#N)cc12 (stereo not drawn) [Example 19f, 6-chloro-5-cyano-4-((4-((1-methoxy-2-methylbutan-2-yl)amino)-1-methyl-2-oxo-1,2-dihydroquinolin-6-yl)amino)-N-methylpicolinamide]
[1]
  IC50: 2.95 µM
[2]
  HTRF pIC50: 6.40

## CC(Nc1cc(=O)n(C)c2ccc(Nc3ccnc(C#N)c3Cl)cc12)c1ncccn1 (stereo not drawn) [Example 19h, 3-chloro-4-((1-methyl-2-oxo-4-((1-(pyrimidin-2-yl)ethyl)amino)-1,2-dihydroquinolin-6-yl)amino)picolinonitrile]
[1]
  IC50: 15.1 µM
[2]
  HTRF pIC50: 6.17

## Cn1c(=O)cc(NC2(c3ncccn3)CCOC2)c2cc(Nc3ccnc(Cl)c3C#N)ccc21 (stereo not drawn) [Example 19i, 2-chloro-4-((1-methyl-2-oxo-4-((3-(pyrimidin-2-yl)tetrahydrofuran-3-yl)amino)-1,2-dihydroquinolin-6-yl)amino)nicotinonitrile]
[1]
  IC50: 9.33 µM
[2]
  HTRF pIC50: 6.38

## CC(Nc1cc(=O)n(C)c2ccc(Nc3ccnc(Cl)c3C#N)cc12)c1ncc(-c2cccnc2)cn1 (stereo not drawn) [Example 20, 2-chloro-4-((1-methyl-2-oxo-4-((1-(5-(pyridin-3-yl)pyrimidin-2-yl)ethyl)amino)-1,2-dihydroquinolin-6-yl)amino)nicotinonitrile]
[1]
  IC50: 0.479 µM
[2]
  HTRF pIC50: 7.46

## CC(=O)N(C)c1cc(Nc2ccc3c(c2)c(NC(C)c2ncccn2)cc(=O)n3C)c(Cl)cn1 (stereo not drawn) [Example 21, N-(5-Chloro-4-((1-methyl-2-oxo-4-((1-(pyrimidin-2-yl)ethyl)amino)-1,2-dihydroquinolin-6-yl)amino)pyridin-2-yl)-N-methylacetamide]
[1]
  IC50: 6.76 µM
[2]
  HTRF pIC50: 6.33

## Cn1c(=O)cc(NC2(C#N)CC2)c2cc(Nc3ccnc(Cl)c3C#N)ccc21 [Example 24b, 2-chloro-4-((4-((1-cyanocyclopropyl)amino)-1-methyl-2-oxo-1,2-dihydroquinolin-6-yl)amino)nicotinonitrile]
[1]
  IC50: 4.79 µM
[2]
  HTRF pIC50: 6.49

## CCC(C)(Nc1cc(=O)n(C)c2ccc(Nc3ccnc(Cl)c3C#N)cc12)c1ncccn1 (stereo not drawn) [Example 24c, 2-chloro-4-((1-methyl-2-oxo-4-((2-(pyrimidin-2-yl)butan-2-yl)amino)-1,2-dihydroquinolin-6-yl)amino)nicotinonitrile]
[1]
  IC50: 5.13 µM
[2]
  HTRF pIC50: 6.45

## C[C@@H](Nc1cc(=O)n(C)c2ncc(Nc3ccnc(Cl)c3C#N)cc12)C1CC1 [Example 24d, (R)-2-chloro-4-((5-((1-cyclopropylethyl)amino)-8-methyl-7-oxo-7,8-dihydro-1,8-naphthyridin-3-yl)amino)nicotinonitrile]
[1]
  IC50: 4.47 µM
[2]
  HTRF pIC50: 6.53

## CC(Nc1cc(=O)n(C)c2ccc(Nc3ccnc(Cl)c3C#N)cc12)c1cc2ccccc2cn1 (stereo not drawn) [Example 24e, 2-chloro-4-((4-((1-(isoquinolin-3-yl)ethyl)amino)-1-methyl-2-oxo-1,2-dihydroquinolin-6-yl)amino)nicotinonitrile]
[1]
  IC50: 3.47 µM
[2]
  HTRF pIC50: 6.38

## CC(Nc1cc(=O)n(C)c2ccc(Nc3ccnc(Cl)c3C#N)cc12)c1ncc(C2CCC2)cn1 (stereo not drawn) [Example 24f, 2-chloro-4-((4-((1-(5-cyclobutylpyrimidin-2-yl)ethyl)amino)-1-methyl-2-oxo-1,2-dihydroquinolin-6-yl)amino)nicotinonitrile]
[1]
  IC50: 1.62 µM
[2]
  HTRF pIC50: 7.26

## COCC1CCN1c1ncc(Cl)c(Nc2ccc3c(c2)c(N[C@H](C)C2CC2)cc(=O)n3C)n1 (stereo partly drawn) [Example 26b, 6-((5-chloro-2-(2-(methoxymethyl)azetidin-1-yl)pyrimidin-4-yl)amino)-4-(((R)-1-cyclopropylethyl)amino)-1-methylquinolin-2(1H)-one: formic acid (1:1)]
[1]
  IC50: 2.69 µM
[2]
  HTRF pIC50: 6.31
